Measurements: patent US20230226198A1, “Artemisinin Derivatives” (DA ZEN THERANOSTICS, INC., priority 2019, published 2023)

Assays:
Type in all cases: cell-based
C4-2B cells = assay: MTT cell viability / IC50 assay, C4-2B; details: Homo sapiens, 48 h
Protocol: (§1) Cell culture: In the following examples, unless otherwise specified, all cell lines are purchased from American Type Culture Collection and cultured in American Type Culture Collection (ATCC)-recommended media, with fetal bovine serum (FBS) to a final concentration of 10% and 1× penicillin/streptomycin at 37° C. with 5% CO2 in a cell culture incubator, unless otherwise specified. Unless otherwise specified, culture is 2D. Where culture is 3D, low attachment plates are used, with the same media. C4-2B (ATCC® CRL-3315™, human prostate cancer cells of epithelial morphology) parental cell line and drug-resistant cells derived therefrom) are cultured in RPMI-1640 with 10% FBS. MDVR cells (an Enzalutamide-resistant variety of C4-2B prostate cancer cells formed as described below) are cultured as indicated for the parental C4-2B cells. Caki-1 cells (human clear cell renal cell carcinoma cells) are cultured in ATCC-formulated McCoy's 5a Medium Modified (ATCC Catalog No. 30-2007) with 10% FBS. […]
(§2) Each of the cell lines is treated either with a THAD (e.g. DZ-DHA-ether, MI-148-bis-DHA), or for comparison, with the DHA mono-ester “DZ-DHA”; alternatively/additionally, DZ1 and/or unconjugated DHA may serve as comparants. […] The absorbance density of the supernatant is read on a 96-well microplate reader at wavelength 595 nm. […]

[1] = system: Abi-R cells (Abiraterone acetate resistant C4-2B cells); assay: MTT cell viability / IC50 assay, Abi-R; details: Homo sapiens, 48 h
Protocol: as §1, §2

22Rv1 cells = assay: MTT cell viability / IC50 assay, 22Rv1; details: Homo sapiens, 22Rv1, 48 h
Protocol: as §1, §2

DU145 cells = assay: MTT cell viability / IC50 assay, DU145; details: Homo sapiens, DU-145; DU145, 48 h
Protocol: as §1, §2

H358 cells = assay: MTT cell viability / IC50 assay, H358; details: Homo sapiens, NCI-H358, 48 h
Protocol: as §1, §2

`C[C@@H]1CC[C@H]2[C@@H](C)C(OC(=O)CCCCCN3/C(=C/C=C4\CCCC(/C=C/C5=[N+](CCCCS(=O)(=O)[O-])c6ccccc6C5(C)C)=C4Cl)C(C)(C)c4ccccc43)O[C@@H]3OC4(C)CC[C@@H]1[C@]32OO4` (stereo in doubt) [DZ3a] gave an IC50 (C4-2B cells) of 5 µM, an IC50 [1] of 17.1 µM and an IC50 (22Rv1 cells) of 0.9 µM. It also gave an IC50 (DU145 cells) of 8.1 µM and an IC50 (H358 cells) of 2.6 µM.

Work on `C[C@H]1[C@@H](O)O[C@@H]2O[C@@]3(C)CC[C@H]4[C@H](C)CC[C@@H]1[C@@]24OO3` [DHA, dihydroartemisinin] yielded an IC50 (C4-2B cells) of 188 µM, an IC50 [1] of 669 µM and an IC50 (22Rv1 cells) of 9.4 µM. It also gave an IC50 (DU145 cells) of 295 µM and an IC50 (H358 cells) of 7.32 µM.
